Drawing on PubChem BioAssay AID248 (DTP/NCI, 2004), this text covers T/C for 17 molecules.

“And” between values parts separate entries of the source, which are not always exact repeats. Equal entries are not always repeated. Inconclusive results and toxic doses are left out.

For this experiment, the system named is L1210 leukemia ip in BDF1 mice, survival T/C. The experiment in a line: NCI In Vivo Anticancer Drug Screen. Data for tumor model L1210 Leukemia (intraperitoneal) in B6D2F1 (BDF1) mice. Particulars: endpoint: mean survival time, higher = longer survival. An outline of the steps: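 Transplantable tumor model; survival measured in treated vs vehicle control mice. Value = treated/control.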

Setting [1] is: dose: 50.0 mg/kg/injection, schedule: Q04DX003 (ip), vehicle: saline.
Setting [2] is: dose: 100.0 mg/kg/injection, schedule: Q04DX003 (ip), vehicle: saline.
[3] abbreviates: dose: 200.0 mg/kg/injection, schedule: Q04DX003 (ip), vehicle: saline.
Where [4] appears, read: dose: 100.0 mg/kg/injection, schedule: Q04DX003 (ip), vehicle: Klucel (hydroxypropylcellulose) (HPC).
Where [5] appears, read: dose: 200.0 mg/kg/injection, schedule: Q04DX003 (ip), vehicle: Klucel (hydroxypropylcellulose) (HPC).
Setting [6] is: dose: 400.0 mg/kg/injection, schedule: Q04DX003 (ip), vehicle: Klucel (hydroxypropylcellulose) (HPC).
[7] abbreviates: dose: 50.0 mg/kg/injection, schedule: Q01DX009 (ip), vehicle: saline with Tween-80.
The mark [8] stands for this setting: dose: 100.0 mg/kg/injection, schedule: Q01DX009 (ip), vehicle: saline with Tween-80.

Take `CCCCCCCCCC[n+]1cccc(C#N)c1`: the T/C (dose: 5.0 mg/kg/injection, schedule: Q01DX009 (ip), vehicle: saline) is 109 % of control; the T/C (dose: 10.0 mg/kg/injection, schedule: Q01DX001 (ip), vehicle: saline) is 100 % of control; the T/C (dose: 10.0 mg/kg/injection, schedule: Q01DX009 (ip), vehicle: saline) is 98 % of control; the T/C (dose: 10.0 mg/kg/injection, schedule: Q04DX003 (ip), vehicle: saline) was 98 % of control; the T/C (dose: 20.0 mg/kg/injection, schedule: Q01DX001 (ip), vehicle: saline) is 95 % of control; the T/C (dose: 20.0 mg/kg/injection, schedule: Q01DX009 (ip), vehicle: saline) was 93 % of control. Besides, the T/C runs as follows: (dose: 20.0 mg/kg/injection, schedule: Q04DX003 (ip), vehicle: saline) 93 % of control; (dose: 40.0 mg/kg/injection, schedule: Q01DX001 (ip), vehicle: saline) 93 % of control; (dose: 40.0 mg/kg/injection, schedule: Q04DX003 (ip), vehicle: saline) 94 % of control.
For `CS(=O)(=O)N(CC(=O)O)Cc1cccc(Br)c1`, the T/C (dose: 50.0 mg/kg/injection, schedule: Q01DX005 (ip), vehicle: other) is 107 % of control; the T/C (dose: 100.0 mg/kg/injection, schedule: Q01DX005 (ip), vehicle: other) was 120 % of control; the T/C (dose: 200.0 mg/kg/injection, schedule: Q01DX005 (ip), vehicle: other) is 100 % of control.
As to `CCCC(=O)N1CCC(C)CC1`, the T/C (dose: 50.0 mg/kg/injection, schedule: Q01DX001 (ip), vehicle: saline) was 103 % of control; the T/C (dose: 50.0 mg/kg/injection, schedule: Q01DX009 (ip), vehicle: saline) was 97 % of control and 98 % of control; the T/C (dose: 50.0 mg/kg/injection, schedule: Q04DX002 (ip), vehicle: saline) was 112 % of control; the T/C under setting [1] is 100 % of control; the T/C (dose: 100.0 mg/kg/injection, schedule: Q01DX001 (ip), vehicle: saline) is 100 % of control; the T/C (dose: 100.0 mg/kg/injection, schedule: Q01DX009 (ip), vehicle: saline) was 98 % of control. Besides, the T/C was 102 % of control (dose: 100.0 mg/kg/injection, schedule: Q04DX002 (ip), vehicle: saline); 107 % of control under setting [2]; 103 % of control (dose: 200.0 mg/kg/injection, schedule: Q01DX001 (ip), vehicle: saline); 94 % of control and 113 % of control (dose: 200.0 mg/kg/injection, schedule: Q01DX009 (ip), vehicle: saline); 102 % of control (dose: 200.0 mg/kg/injection, schedule: Q04DX002 (ip), vehicle: saline); 95 % of control under setting [3].
In the case of `COc1ccccc1CN1CCCN(Cc2ccccc2OC)C1`, the T/C (dose: 100.0 mg/kg/injection, schedule: Q01DX001 (ip), vehicle: carboxymethylcellulose (CMC)) was 97 % of control; the T/C (dose: 200.0 mg/kg/injection, schedule: Q01DX001 (ip), vehicle: carboxymethylcellulose (CMC)) is 105 % of control; the T/C (dose: 400.0 mg/kg/injection, schedule: Q01DX001 (ip), vehicle: carboxymethylcellulose (CMC)) is 97 % of control.
As to `O=NN(CCBr)C(=O)Nc1ccccc1`, the T/C is 153 % of control (dose: 111.0 mg/kg/injection, schedule: Q01DX001 (ip), vehicle: carboxymethylcellulose (CMC)); 161 % of control (dose: 222.0 mg/kg/injection, schedule: Q01DX001 (ip), vehicle: carboxymethylcellulose (CMC)); 124 % of control (dose: 444.0 mg/kg/injection, schedule: Q01DX001 (ip), vehicle: carboxymethylcellulose (CMC)).
`COc1cc2c(c3oc(=O)ccc13)C=CC(C)(C)O2`: the T/C was 102 % of control under setting [4], 107 % of control under setting [5] and 94 % of control under setting [6].
With `CCn1cnc2c(C(F)(F)F)nc(N)nc21`, the T/C is 94 % of control (dose: 12.5 mg/kg/injection, schedule: Q01DX001 (ip), vehicle: acetone); 96 % of control (dose: 12.5 mg/kg/injection, schedule: Q01DX009 (ip), vehicle: saline with Tween-80); 103 % of control (dose: 12.5 mg/kg/injection, schedule: Q04DX003 (ip), vehicle: saline); 94 % of control (dose: 25.0 mg/kg/injection, schedule: Q01DX001 (ip), vehicle: acetone); 101 % of control (dose: 25.0 mg/kg/injection, schedule: Q01DX009 (ip), vehicle: saline with Tween-80); 87 % of control (dose: 25.0 mg/kg/injection, schedule: Q04DX003 (ip), vehicle: saline). For the same molecule, the T/C runs as follows: (dose: 50.0 mg/kg/injection, schedule: Q01DX001 (ip), vehicle: acetone) 101 % of control; under setting [7], 95 % of control; under setting [1], 97 % of control.
As for `O=C(O)c1ccc(Br)c2ccccc12`, the T/C (dose: 75.0 mg/kg/injection, schedule: Q01DX001 (ip), vehicle: carboxymethylcellulose (CMC)) was 95 % of control and the T/C (dose: 150.0 mg/kg/injection, schedule: Q01DX001 (ip), vehicle: carboxymethylcellulose (CMC)) is 98 % of control.
Consider `CS(=O)(=O)CC1OC(n2nnc3c(N)ncnc32)C(O)C1O` (configuration not stated), for which the T/C reads like this: (dose: 50.0 mg/kg/injection, schedule: Q01DX001 (ip), vehicle: saline with Tween-80) 94 % of control; (dose: 100.0 mg/kg/injection, schedule: Q01DX001 (ip), vehicle: saline with Tween-80) 102 % of control; (dose: 200.0 mg/kg/injection, schedule: Q01DX001 (ip), vehicle: saline with Tween-80) 94 % of control.
As to `Nc1cc(O)c(CCCNC(=O)CBr)c(-c2ccccc2)c1`, the T/C runs as follows: (dose: 100.0 mg/kg/injection, schedule: Q01DX001 (ip), vehicle: Klucel (hydroxypropylcellulose) (HPC)) 92 % of control; (dose: 200.0 mg/kg/injection, schedule: Q01DX001 (ip), vehicle: Klucel (hydroxypropylcellulose) (HPC)) 105 % of control; (dose: 400.0 mg/kg/injection, schedule: Q01DX001 (ip), vehicle: Klucel (hydroxypropylcellulose) (HPC)) 102 % of control.
With `COC(=O)c1ccccc1OC(=O)c1ccccc1`, the T/C is 105 % of control under setting [2]; 97 % of control under setting [3]; 105 % of control (dose: 400.0 mg/kg/injection, schedule: Q04DX003 (ip), vehicle: saline).
For the molecule `O=C(O)c1ccccc1[N+](=O)[O-].[Ag]`, the T/C by setting is: (dose: 12.5 mg/kg/injection, schedule: Q04DX003 (ip), vehicle: saline with Tween-80) 90 % of control; (dose: 25.0 mg/kg/injection, schedule: Q04DX003 (ip), vehicle: saline with Tween-80) 107 % of control; (dose: 50.0 mg/kg/injection, schedule: Q04DX003 (ip), vehicle: saline with Tween-80) 91 % of control.
For `c1ccc(-c2nc3ccccc3nc2-c2ccccc2)cc1`, the T/C under setting [4] was 96 % of control; the T/C (dose: 100.0 mg/kg/injection, schedule: Q04DX003 (ip), vehicle: saline with Tween-80) was 100 % of control; the T/C under setting [5] was 86 % of control; the T/C (dose: 200.0 mg/kg/injection, schedule: Q04DX003 (ip), vehicle: saline with Tween-80) is 100 % of control; the T/C under setting [6] is 90 % of control; the T/C (dose: 400.0 mg/kg/injection, schedule: Q04DX003 (ip), vehicle: saline with Tween-80) is 100 % of control.
For the molecule `Cn1cnc2c(C(F)(F)F)nc(N)nc21`, the T/C is, setting by setting: under setting [2], 94 % of control; under setting [3], 102 % of control.
`O=C1c2ccccc2C(c2ccccc2)C1c1ccccc1` (configuration not stated): the T/C (dose: 50.0 mg/kg/injection, schedule: Q04DX002 (ip), vehicle: Klucel (hydroxypropylcellulose) (HPC)) was 108 % of control; the T/C (dose: 100.0 mg/kg/injection, schedule: Q04DX002 (ip), vehicle: Klucel (hydroxypropylcellulose) (HPC)) was 94 % of control; the T/C (dose: 200.0 mg/kg/injection, schedule: Q04DX002 (ip), vehicle: Klucel (hydroxypropylcellulose) (HPC)) is 94 % of control.
On to `Nc1ccc(I)c(Cl)c1Cl`, for which the T/C is 110 % of control under setting [8]; 108 % of control (dose: 200.0 mg/kg/injection, schedule: Q01DX009 (ip), vehicle: saline with Tween-80); 102 % of control (dose: 400.0 mg/kg/injection, schedule: Q01DX009 (ip), vehicle: saline with Tween-80).
On to `COc1coc(CO)cc1=O`, for which the T/C is 94 % of control under setting [7] and 97 % of control under setting [8].
